{"source": "paper PMC6675714", "about": "(Cancer Medicine, 2019)", "origin": "cited, not measured here", "key": {"Caki‐1 tumor": {"test_system": "Caki‐1 tumor", "conditions": "cited from earlier work; for T/C (tumor growth): same xenograft mice model (Caki‐1, NMRI:nu/nu)"}, "advanced stages of CCRCC": {"test_system": "advanced stages of CCRCC", "conditions": "chemo‐monotherapies; cited from earlier work"}, "H‐Ras/Raf‐1 interaction": {"test_system": "H‐Ras/Raf‐1 interaction", "parameters": "method as in PMID 28959398", "conditions": "cited from earlier work"}, "A431 tumor": {"test_system": "A431 tumor", "parameters": "method as in PMID 28959398", "conditions": "A431 tumor‐bearing female BALB/cA.Cg‐Foxn1^nu/CrINarI; cited from earlier work"}, "[1]": {"conditions": "Caki‐1 tumor‐bearing female NMRI:nu/nu mice"}}, "note": "Where two headings read alike, the source gives them in different places.", "data": [{"compound": "CC(=O)OCC1OC([S][Au-][c]2n(Cc3ccccc3)c(-c3ccccc3)c(-c3ccccc3)[n+]2Cc2ccccc2)C(OC(C)=O)C(OC(C)=O)C1OC(C)=O", "note": "(centres unmarked) [NHC‐AuSR]", "values": [{"measurement": "T/C (tumor growth)", "setting": "Caki‐1 tumor", "value": 47, "unit": "%"}, {"measurement": "Side effects", "setting": "Caki‐1 tumor; same xenograft mice model", "value": "no severe side effects"}, {"measurement": "ki‐67 or CD31 markers", "setting": "Caki‐1 tumor; same xenograft mice model", "value": "no decrease"}]}, {"compound": "CCCCCOC(=O)Nc1nc(=O)n([C@@H]2O[C@H](C)[C@@H](O)[C@H]2O)cc1F", "note": "[capecitabine]", "values": [{"measurement": "Response rate", "setting": "advanced stages of CCRCC", "value": "~20", "unit": "%"}, {"measurement": "Survival", "setting": "advanced stages of CCRCC", "value": 15, "unit": "months"}]}, {"compound": "[Ir(tpy)(dnbpy)]", "values": [{"measurement": "H‐Ras/Raf‐1 interaction", "setting": "H‐Ras/Raf‐1 interaction", "value": "inhibiting"}, {"measurement": "Tumor growth", "setting": "A431 tumor", "value": "tumor growth inhibition"}]}, {"compound": "CCN(CC)c1ccc(C[c-]2cccc2)cc1.CCN(CC)c1ccc(C[c-]2cccc2)cc1.[Cl][Ti+2][Cl]", "note": "[Titanocene Y*]", "values": [{"measurement": "Side effects", "setting": "Caki‐1 tumor; [1]", "value": "no severe side effects"}, {"measurement": "Reduction of proliferation marker ki‐67", "setting": "Caki‐1 tumor; Caki‐1 xenograft", "value": 21, "unit": "%"}, {"measurement": "Vascularization", "setting": "Caki‐1 tumor; Caki‐1 xenograft", "value": "decreased vascularization"}, {"measurement": "Weight loss", "setting": "Caki‐1 tumor; Caki‐1 xenograft", "value": "dose‐dependent weight loss"}]}, {"compound": "O=c1[nH]cc(F)c(=O)[nH]1", "note": "[5‐FU]", "values": [{"measurement": "Response rate", "setting": "advanced stages of CCRCC", "value": "~20", "unit": "%"}, {"measurement": "Survival", "setting": "advanced stages of CCRCC", "value": 15, "unit": "months"}]}, {"compound": "COc1ccc(C[c-]2cccc2)cc1.COc1ccc(C[c-]2cccc2)cc1.[Cl][V+2][Cl]", "note": "[Vanadocene Y]", "values": [{"measurement": "Side effects", "setting": "Caki‐1 tumor; [1]", "value": "no severe side effects"}]}, {"compound": "[Cl][Au-][c]1n(Cc2ccccc2)c(-c2ccccc2)c(-c2ccccc2)[n+]1Cc1ccccc1", "note": "[NHC‐Au‐Cl]", "values": [{"measurement": "T/C (tumor growth)", "setting": "Caki‐1 tumor", "value": 47, "unit": "%"}, {"measurement": "Side effects", "setting": "Caki‐1 tumor; same xenograft mice model", "value": "no severe side effects"}, {"measurement": "ki‐67 or CD31 markers", "setting": "Caki‐1 tumor; same xenograft mice model", "value": "no decrease"}]}]}
